# Columns and labels:
# ABCD1 KO mice = assay: Reduction of C26:0 LPC, SC-VLCFA and acyl carnitine levels in ABCD1 KO brains; type: in vivo, mouse; details: for reduction of brain C26:0 acyl carnitine levels: after 2 months of treatment
# Procedure: To examine the effect of Compound 87 on VLCFA levels in the CNS, female ABCD1 KO mice were treated with vehicle, 1 or 10 mg/kg PO QD for 2 weeks (14 days; n=5 per group), 1 month (28 days; n=5 per group), 2 months (56 days; n=6 per group), or 3 months (84 days; n=6 per group). The brain samples used in this study were from the same mice used in the long term dosing study in ABCD1 knock-out mice and WT mice (see Example 2.3). Brain tissue samples were collected after 2, 4, 8, or 12 weeks of dosing with vehicle or Compound 87. Brain samples were frozen at −70° C. and were analyzed for VLCFA (LPC, SC-VLCFA, acyl-carnitines) via liquid chromatography-mass spectrometry (LCMS) as described below. The vehicle used was 2% TPGS and Compound 87 doses were prepared in 2% TPGS.
# Levels of VLCFA, including straight chain very long chain fatty acids (SC-VLCFA), acyl carnitines, and lysophosphatidylcholines (LPC), in the brain were examined. SC-VLCFA were expected to be rapidly incorporated into other forms and acyl carnitines were expected to be rapidly degraded, contributing to a short expected half-life for these forms. LPC was expected to integrate into membranes, contributing to a longer expected half-life.
# Brain Sample Preparation:
# (i) 3 volumes of MeOH was add to each sample; (ii) homogenized tissue samples with FastPrep (FP120) at 4.5 intensity for 25 seconds; and (iii) aliquoted tissue lysates.
# LPC and Acylcarnitine Extraction with CHCl3/MeOH Liquid-Liquid Extraction:
# Added 1 mL MeOH, then added 1 mL […] to the brain tissue lysates; incubated 30 minutes at room temperature; added 1 mL CHCl3 and 0.75 mL H2O; incubated 30 minutes; centrifuged max for 10 minutes; transferred lower layer to new vials; organic phase was dried using Turbo-Vac. The resulting residue was re-constituted with MeOH.
# 3-Step Chemical Derivatization of SC-VLCFA Using Dimethylaminoethanol (VLCFA-DMAE):
# (i) added oxalyl chloride (2 mol/l oxalyl chloride in CH2Cl2, 200 ul) to the dried mixture, incubated at 65° C. for 5 minutes; (ii) added 60 uL dimethylaminoethanol, incubated at 25° C. for 5 minutes and dried down; (iii) added 100 uL methyl iodide, incubated briefly and dried down. The resulting residue was re-constituted with ethanol (EtOH).
# LCMSMS Detection of VLCFA (e.g., Spingomyelin (SM) and LPC and Derivatized VLCFA (FA-DMAE)):
# LPC Detection: • Column: Discovery C18, 2.1×20 mm • Phase A: 50% MeOH/5 mM AF; Phase B: 2-propanol • MS: 4000 Qtrap operated in ESI MRM positive mode
# FA-DMAE Detection: • Column: Synergi Polar RP, 2×150 mm • Phase A: H2O/0.1% FA; Phase B: ACN/0.1% FA • MS: 4000 Qtrap operated in ESI MRM positive mode
# [1] = Metabolic intrinsic clearance in rat hepatocytes; type: in vitro ADME; details: Sprague Dawley, cryopreserved hepatocytes in suspension, pH 7.5, 0.5 million cells/mL, incubation for 4 hours
# Procedure: The metabolic intrinsic clearance (CLint) of Compound 87 was determined in human, monkey, dog, rat, and mouse hepatocytes. Cryopreserved human hepatocytes (Lot Hue50c), monkey hepatocytes (cynomolgus; Lot Cy328), dog hepatocytes (beagle, Lot Db235), rat hepatocytes (Sprague Dawley; NNH), and mouse hepatocytes (CD-1; Lot Mc522) were obtained from ThermoFisher (Paisley, UK). In separate experiments, compound 87 (1 μM) was incubated with hepatocytes from each species (0.5 million cells/mL, suspension) in Dulbecco's Modified Eagle's Medium (DMEM) supplemented with 4-(2-Hydroxyethyl)piperazine-1-ethanesulfonic acid (HEPES, 9 mM) and fructose (2.2 mM) (pH 7.5). Samples were quenched with acetonitrile and analyzed by LC-MS/MS. The mean CLint for Compound 87 in human, monkey, dog, rat, and mouse hepatocytes after incubation for 4 hours was determined to be ≤2.5, ≤2.5, 7.2, 23.6 and 10.7 μL/min/million cells. Based on these date, Compound 87 was low to moderately metabolized in hepatocytes in mouse, rat, dog, monkey, and human, and the rank order of stability at […] was approximately human>monkey>dog>mouse>rat. […] The metabolic stability of Compound 87 was not expected.
# [2] = 1 mg/kg or 10 mg/kg PO QD, after 2 weeks of dosing
structure (smiles),measurement,setting,value
"O=C(Nc1ccn(-c2ccnc(F)c2)n1)C1(c2ccccc2F)CC1 [Compound 87, 1-(2-fluorophenyl)-N-[1-(2-fluoro-4-pyridyl)pyrazol-3-yl]cyclopropanecarboxamide]",reduction in brain C26:0 LPC,"ABCD1 KO mice; 1 mg/kg PO QD, 2 months",~30%
same,reduction of brain C26:0 SC-VLCFA levels,"ABCD1 KO mice; 1 mg/kg PO QD, 2 months",about 30%
same,reduction in brain C26:0 LPC,"ABCD1 KO mice; 1 mg/kg PO QD, 3 months",~30%
same,reduction of brain C26:0 SC-VLCFA levels,"ABCD1 KO mice; 1 mg/kg PO QD, 3 months",about 50%
same,reduction of brain C26:0 acyl carnitine levels,ABCD1 KO mice; 1 mg/kg PO QD,~50%
same,brain C24:0 LPC levels (normalized by C16:0 LPC levels),"ABCD1 KO mice; 1 mg/kg or 10 mg/kg PO QD, 3 months",significant reduction
same,brain LPC levels,ABCD1 KO mice; [2],no changes
same,brain SC-VLCFA levels,ABCD1 KO mice; [2],no changes
same,reduction in brain C26:0 LPC,"ABCD1 KO mice; 10 mg/kg PO QD, 2 months",~40%
same,reduction of brain C26:0 SC-VLCFA levels,"ABCD1 KO mice; 10 mg/kg PO QD, 2 months",about 55%
same,reduction of brain C26:0 acyl carnitine levels,ABCD1 KO mice; 10 mg/kg PO QD,~70%
same,brain C24:0 SC-VLCFA level,"ABCD1 KO mice; 10 mg/kg PO QD, after 3 months of dosing",significant reduction
same,hepatocyte CLint at 1 μM,[1],23.6 µL/min/1e6 cells

# Reference: patent US20180251431A1 (VERTEX PHARMACEUTICALS INCORPORATED, priority 2016, published 2018)
